Values quoted from earlier work as cited in patent US11254696B2, “Dianilinopyrimidine compound for inhibiting kinase activity” (Shenzhen Targetrx, Inc., priority 2017, dated 2022).

Columns and labels:
[1] = biological target: ALK G1202R (Homo sapiens, UniProt Q9UM73, G1202R); conditions: Crizotinib-resistant mutation; cited from earlier work
[2] = tested on: ALK F1174C/V; conditions: Crizotinib-resistant mutation; cited from earlier work

Sequence of ALK G1202R (Q9UM73 19-1620 G1202R): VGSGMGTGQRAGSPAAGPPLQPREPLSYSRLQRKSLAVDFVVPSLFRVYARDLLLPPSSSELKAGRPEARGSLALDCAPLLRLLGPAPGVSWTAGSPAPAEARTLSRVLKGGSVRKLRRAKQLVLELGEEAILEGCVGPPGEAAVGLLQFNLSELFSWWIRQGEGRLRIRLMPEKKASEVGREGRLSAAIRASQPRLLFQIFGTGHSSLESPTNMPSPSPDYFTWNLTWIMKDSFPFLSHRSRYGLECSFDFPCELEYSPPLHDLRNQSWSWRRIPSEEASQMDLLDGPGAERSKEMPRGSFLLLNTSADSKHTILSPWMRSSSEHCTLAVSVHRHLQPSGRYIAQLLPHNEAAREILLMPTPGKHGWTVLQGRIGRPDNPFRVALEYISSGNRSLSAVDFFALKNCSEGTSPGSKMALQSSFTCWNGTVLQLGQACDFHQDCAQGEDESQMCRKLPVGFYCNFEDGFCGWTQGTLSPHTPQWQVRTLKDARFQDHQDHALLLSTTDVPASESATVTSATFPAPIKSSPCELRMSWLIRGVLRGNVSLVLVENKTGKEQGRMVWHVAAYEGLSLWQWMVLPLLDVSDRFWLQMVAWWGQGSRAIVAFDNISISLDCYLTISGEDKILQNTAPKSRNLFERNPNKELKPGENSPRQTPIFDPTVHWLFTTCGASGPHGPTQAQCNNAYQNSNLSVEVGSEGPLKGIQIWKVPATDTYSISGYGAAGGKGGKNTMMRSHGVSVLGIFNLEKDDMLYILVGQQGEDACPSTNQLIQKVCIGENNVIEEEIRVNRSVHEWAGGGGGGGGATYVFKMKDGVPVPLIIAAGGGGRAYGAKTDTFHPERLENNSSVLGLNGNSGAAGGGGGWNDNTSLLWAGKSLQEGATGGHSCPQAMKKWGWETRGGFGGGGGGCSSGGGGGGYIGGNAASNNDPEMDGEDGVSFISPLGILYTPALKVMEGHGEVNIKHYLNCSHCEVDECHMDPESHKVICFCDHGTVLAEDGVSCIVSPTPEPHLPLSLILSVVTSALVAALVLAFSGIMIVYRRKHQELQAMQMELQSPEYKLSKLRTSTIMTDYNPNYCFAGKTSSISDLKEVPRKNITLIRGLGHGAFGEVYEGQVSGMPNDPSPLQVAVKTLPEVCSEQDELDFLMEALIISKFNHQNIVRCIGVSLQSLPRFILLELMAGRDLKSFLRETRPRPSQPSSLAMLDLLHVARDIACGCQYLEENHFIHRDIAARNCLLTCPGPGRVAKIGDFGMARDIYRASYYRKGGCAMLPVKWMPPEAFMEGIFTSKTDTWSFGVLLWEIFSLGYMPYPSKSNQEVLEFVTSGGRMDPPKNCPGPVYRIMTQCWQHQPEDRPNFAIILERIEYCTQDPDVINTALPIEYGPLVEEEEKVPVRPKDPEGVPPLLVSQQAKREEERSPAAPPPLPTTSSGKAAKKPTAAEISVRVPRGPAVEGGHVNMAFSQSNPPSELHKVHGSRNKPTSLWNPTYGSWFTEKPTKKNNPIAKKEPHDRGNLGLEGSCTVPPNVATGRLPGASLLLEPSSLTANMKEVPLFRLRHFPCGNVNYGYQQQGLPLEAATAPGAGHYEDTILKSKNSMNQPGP

Cc1cc(Nc2ncc(Cl)c(Nc3ccccc3S(=O)(=O)C(C)C)n2)c(OC(C)C)cc1C1CCNCC1 [Ceritinib]
effect on G1202R [1]: neither of them has effect
effect on F1174C/V [2]: no effect
